This note sets out measurements from patent US20230285489A1, “METHODS, COMPOSITIONS, AND KITS ADDRESSING DEPRESSED MOOD” (Centre for Addiction and Mental Health, priority 2014, published 2023).

This series can be described thus: Breast milk and plasma amino acid levels and tolerability after oral tyrosine or tryptophan. Particulars: for amount of free amino acid in breast milk: after oral supplementation. As to the method: Many amino acids and most medications freely cross into breast milk. […] The reason is that approximately 98% of tryptophan in breast milk is contained in proteins and peptides and that 99% of tyrosine in breast milk is contained in proteins and peptides. Different supplementation doses of oral tyrosine (0 g (none), 2, 5 or 10 grams) (n=6 each) or oral tryptophan (0 g (none), 2 or 4 grams) (n=6 each) were evaluated for resulting levels in breast milk.

As to `N[C@@H](Cc1c[nH]c2ccccc12)C(=O)O` [tryptophan, L-tryptophan], the “amount of free amino acid in breast milk” value is “did increase”. In addition, for the setting “oral tryptophan 2 or 4 grams, n=6 each”, the “total tryptophan levels in breast milk” value was “no change”. Moreover, where the note is “tryptophan 4 gram level”, the adverse effect result was “nausea” and the “total tryptophan in breast milk” value is “did not increase”. In addition, for the setting “tryptophan dose of 2 grams”, the “level in maternal plasma” value is “significantly increased”, the tolerability entry is on record as “extremely well tolerated” and the “total tryptophan levels in breast milk” value was “did not have any effects”.
As for `N[C@@H](Cc1ccc(O)cc1)C(=O)O` [tyrosine, L-tyrosine], the “amount of free amino acid in breast milk” value is listed as “did increase”. Besides, the “total tyrosine levels in breast milk” value (oral tyrosine 2, 5 or 10 grams, n=6 each) was “no change”. Besides, for the setting “tyrosine dose of 10 grams”, the “level in maternal plasma” value is given as “significantly increased”, the tolerability result was “extremely well tolerated” and the “total tyrosine levels in breast milk” value is listed as “did not significantly impact”.
